In ChEMBL document CHEMBL1201862, “PubChem BioAssay data set” (2004):
Activity calls are given as the source filed them.

Tests used:
[1] = biological target: Genome polyprotein (Hepatitis C virus, UniProt Q2Q167); assay: HCV core protein dimerization inhibitors, dose response, biochemical, TR-FRET (AID 2159); set-up: species or system Hepacivirus hominis;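 further: blocks dimerization of HCV core protein measured by TR-FRET between tagged core106 pairs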
[2] = biological target: Peroxisome proliferator-activated receptor gamma/Nuclear receptor coactivator 1 (Homo sapiens, UniProt P37231); assay: (§1) TR-FRET dose response biochemical High Throughput Screening assay for agonists of the steroid receptor coactivator 1 (SRC-1) recruitment by the peroxisome proliferator-activated receptor gamma (PPAR gamma): non-selective agonists. [Related pubchem assays (depositor defined):AID1300, AID1808, AID504735, AID631]; assay type: protein assay
Chain of Peroxisome proliferator-activated receptor gamma/Nuclear receptor coactivator 1 (P37231 whole entry): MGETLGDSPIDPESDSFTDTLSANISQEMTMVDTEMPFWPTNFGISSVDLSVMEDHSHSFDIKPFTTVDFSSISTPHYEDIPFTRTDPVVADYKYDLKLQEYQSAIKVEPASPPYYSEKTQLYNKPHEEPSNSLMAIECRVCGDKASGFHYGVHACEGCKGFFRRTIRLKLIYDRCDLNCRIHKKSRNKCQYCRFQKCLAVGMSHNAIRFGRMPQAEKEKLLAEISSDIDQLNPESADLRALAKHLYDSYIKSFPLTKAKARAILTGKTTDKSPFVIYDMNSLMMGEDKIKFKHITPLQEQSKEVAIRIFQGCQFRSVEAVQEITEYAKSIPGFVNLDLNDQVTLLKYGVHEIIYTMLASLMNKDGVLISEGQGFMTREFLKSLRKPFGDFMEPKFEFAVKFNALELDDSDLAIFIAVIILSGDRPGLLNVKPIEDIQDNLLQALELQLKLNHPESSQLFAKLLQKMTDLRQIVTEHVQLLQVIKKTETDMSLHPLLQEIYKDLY
Chain of Peroxisome proliferator-activated receptor gamma/Nuclear receptor coactivator 1 (Q15788 whole entry, further chain): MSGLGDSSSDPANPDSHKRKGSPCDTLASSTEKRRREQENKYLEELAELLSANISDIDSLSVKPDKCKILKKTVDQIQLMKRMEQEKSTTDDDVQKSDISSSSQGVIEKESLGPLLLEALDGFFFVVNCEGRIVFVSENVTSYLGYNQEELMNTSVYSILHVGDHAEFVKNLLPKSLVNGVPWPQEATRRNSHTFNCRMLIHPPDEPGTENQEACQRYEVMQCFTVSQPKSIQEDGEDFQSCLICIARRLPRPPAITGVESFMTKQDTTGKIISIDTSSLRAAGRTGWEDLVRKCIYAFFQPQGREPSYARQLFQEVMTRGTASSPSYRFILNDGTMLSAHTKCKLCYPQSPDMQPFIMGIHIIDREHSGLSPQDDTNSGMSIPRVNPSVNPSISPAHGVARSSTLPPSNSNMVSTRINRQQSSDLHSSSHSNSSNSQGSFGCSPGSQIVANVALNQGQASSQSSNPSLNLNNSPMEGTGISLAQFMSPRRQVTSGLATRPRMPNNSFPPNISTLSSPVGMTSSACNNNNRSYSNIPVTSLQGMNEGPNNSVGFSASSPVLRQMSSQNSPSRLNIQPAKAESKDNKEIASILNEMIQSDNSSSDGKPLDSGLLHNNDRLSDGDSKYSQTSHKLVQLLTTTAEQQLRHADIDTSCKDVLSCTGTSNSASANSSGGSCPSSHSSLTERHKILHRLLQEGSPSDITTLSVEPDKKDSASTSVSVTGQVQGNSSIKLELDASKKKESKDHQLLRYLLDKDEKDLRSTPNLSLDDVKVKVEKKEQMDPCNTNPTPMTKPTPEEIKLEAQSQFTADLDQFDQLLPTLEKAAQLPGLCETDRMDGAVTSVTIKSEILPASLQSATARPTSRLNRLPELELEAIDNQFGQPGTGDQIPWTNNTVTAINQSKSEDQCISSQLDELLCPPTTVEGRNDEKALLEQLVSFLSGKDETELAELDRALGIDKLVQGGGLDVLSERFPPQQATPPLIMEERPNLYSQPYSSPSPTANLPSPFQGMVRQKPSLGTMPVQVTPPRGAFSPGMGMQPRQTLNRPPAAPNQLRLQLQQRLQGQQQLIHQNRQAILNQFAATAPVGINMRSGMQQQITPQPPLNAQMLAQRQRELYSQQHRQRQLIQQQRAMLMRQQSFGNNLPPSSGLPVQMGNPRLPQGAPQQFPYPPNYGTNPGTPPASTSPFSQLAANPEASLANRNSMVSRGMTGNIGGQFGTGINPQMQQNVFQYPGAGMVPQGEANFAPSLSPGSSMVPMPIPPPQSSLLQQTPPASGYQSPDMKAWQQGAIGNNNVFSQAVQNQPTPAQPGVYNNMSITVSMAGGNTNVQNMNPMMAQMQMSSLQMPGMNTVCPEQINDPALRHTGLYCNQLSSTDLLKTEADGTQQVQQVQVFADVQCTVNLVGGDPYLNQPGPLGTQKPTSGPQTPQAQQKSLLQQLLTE

[3] = biological target: Peroxisome proliferator-activated receptor gamma/Nuclear receptor coactivator 3 (Homo sapiens, UniProt P37231); assay: as §1, with “3 (SRC-3)” for “1 (SRC-1)”, “assays: 1301 (Confirmation screen.), 1048 (Primary screen.)]” for “assays (depositor defined):AID1300, AID1808, AID504735, AID631]”; assay type: functional
[4] = biological target: Peroxisome proliferator-activated receptor gamma/Nuclear receptor coactivator 2 (Homo sapiens, UniProt P37231); assay: TR-FRET dose response biochemical High Throughput Screening assay for agonists of the steroid receptor coactivator 2 (SRC-2) recruitment by the peroxisome proliferator-activated receptor gamma (PPAR gamma): non-selective agonists. [Related pubchem assays: 1297, 1032 ]; assay type: functional
[5] = biological target: Dual specificity protein phosphatase 6 (Rattus norvegicus, UniProt Q64346); assay: MKP-3 phosphatase inhibitors, primary screen, biochemical, rat enzyme, in vitro (AID 425)
Chain of Dual specificity protein phosphatase 6 (Q64346 whole entry, the tested form may be a part): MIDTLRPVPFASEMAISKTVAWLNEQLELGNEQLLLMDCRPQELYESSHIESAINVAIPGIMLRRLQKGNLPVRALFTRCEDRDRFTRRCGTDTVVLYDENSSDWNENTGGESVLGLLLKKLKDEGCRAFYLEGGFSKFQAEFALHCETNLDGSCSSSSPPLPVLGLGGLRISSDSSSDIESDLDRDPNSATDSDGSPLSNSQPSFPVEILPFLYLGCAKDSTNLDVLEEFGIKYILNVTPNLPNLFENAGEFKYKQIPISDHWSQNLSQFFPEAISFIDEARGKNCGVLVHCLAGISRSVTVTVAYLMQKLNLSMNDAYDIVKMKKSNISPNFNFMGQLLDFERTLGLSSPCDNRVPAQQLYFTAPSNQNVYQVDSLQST

[6] = biological target: T1, Carboxy-terminal domain RNA polymerase II polypeptide A small phosphatase 1 (Homo sapiens, UniProt Q9GZU7); assay: inhibitors of CTDSP1, concentration-response testing, biochemical assay, absorbance-based, actives from ultra-high-throughput screening (AID 540297); assay type: functional
T1 sequence (Q9GZU7 whole entry): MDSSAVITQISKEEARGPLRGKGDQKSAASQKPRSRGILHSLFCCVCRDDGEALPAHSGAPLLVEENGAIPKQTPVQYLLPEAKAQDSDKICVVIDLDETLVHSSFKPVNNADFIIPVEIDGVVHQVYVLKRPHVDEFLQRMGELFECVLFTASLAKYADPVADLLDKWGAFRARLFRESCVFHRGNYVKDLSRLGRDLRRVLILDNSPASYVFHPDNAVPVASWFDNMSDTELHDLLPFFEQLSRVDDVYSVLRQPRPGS

[7] = biological target: Tyrosine-protein phosphatase non-receptor type 11 (Homo sapiens, UniProt Q06124); assay: SHP2 phosphatase inhibition, dose response, selectivity assay for STEP inhibitor project, biochemical (AID 602367); assay type: functional; details: read-out: IC50_Mean
Chain of Tyrosine-protein phosphatase non-receptor type 11 (Q06124 whole entry): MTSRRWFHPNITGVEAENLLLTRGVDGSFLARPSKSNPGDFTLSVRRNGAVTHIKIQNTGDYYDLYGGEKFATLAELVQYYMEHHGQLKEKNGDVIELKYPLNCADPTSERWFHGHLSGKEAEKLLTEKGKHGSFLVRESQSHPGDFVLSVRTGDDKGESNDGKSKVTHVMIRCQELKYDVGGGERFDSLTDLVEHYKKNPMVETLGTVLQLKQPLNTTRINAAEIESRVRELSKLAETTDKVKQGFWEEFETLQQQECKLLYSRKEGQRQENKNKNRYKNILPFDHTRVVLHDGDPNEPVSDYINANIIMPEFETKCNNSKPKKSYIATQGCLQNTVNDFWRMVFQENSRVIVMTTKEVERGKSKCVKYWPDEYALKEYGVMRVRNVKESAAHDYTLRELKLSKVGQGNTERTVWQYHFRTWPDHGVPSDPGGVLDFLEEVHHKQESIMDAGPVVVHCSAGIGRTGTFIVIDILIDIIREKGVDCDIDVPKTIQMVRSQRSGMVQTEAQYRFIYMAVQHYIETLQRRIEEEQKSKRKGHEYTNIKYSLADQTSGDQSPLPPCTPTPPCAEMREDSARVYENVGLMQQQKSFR

[8] = biological target: 26S proteasome non-ATPase regulatory subunit 14 (Homo sapiens, UniProt O00487); assay: inhibition of proteasome subunit RPN11 – biochemical, fluorescence polarization, uHTS hits, confirmation (AID 602368); assay type: functional
Chain of 26S proteasome non-ATPase regulatory subunit 14 (O00487 whole entry): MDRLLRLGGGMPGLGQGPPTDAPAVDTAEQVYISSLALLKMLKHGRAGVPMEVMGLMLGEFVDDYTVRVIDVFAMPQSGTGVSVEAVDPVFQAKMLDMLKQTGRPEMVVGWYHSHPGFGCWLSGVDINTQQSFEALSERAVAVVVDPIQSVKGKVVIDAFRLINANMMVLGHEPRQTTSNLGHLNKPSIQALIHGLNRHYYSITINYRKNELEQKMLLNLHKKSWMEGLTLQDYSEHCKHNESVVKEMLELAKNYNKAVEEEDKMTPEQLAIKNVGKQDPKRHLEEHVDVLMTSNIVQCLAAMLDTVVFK

[9] = biological target: Tyrosine-protein phosphatase non-receptor type 5 (Homo sapiens, UniProt P54829); assay: STEP phosphatase inhibitors, confirmation, biochemical, fluorescence intensity, uHTS hits (AID 602372); assay type: functional; details: read-out: IC50_Mean
Chain of Tyrosine-protein phosphatase non-receptor type 5 (P54829 whole entry): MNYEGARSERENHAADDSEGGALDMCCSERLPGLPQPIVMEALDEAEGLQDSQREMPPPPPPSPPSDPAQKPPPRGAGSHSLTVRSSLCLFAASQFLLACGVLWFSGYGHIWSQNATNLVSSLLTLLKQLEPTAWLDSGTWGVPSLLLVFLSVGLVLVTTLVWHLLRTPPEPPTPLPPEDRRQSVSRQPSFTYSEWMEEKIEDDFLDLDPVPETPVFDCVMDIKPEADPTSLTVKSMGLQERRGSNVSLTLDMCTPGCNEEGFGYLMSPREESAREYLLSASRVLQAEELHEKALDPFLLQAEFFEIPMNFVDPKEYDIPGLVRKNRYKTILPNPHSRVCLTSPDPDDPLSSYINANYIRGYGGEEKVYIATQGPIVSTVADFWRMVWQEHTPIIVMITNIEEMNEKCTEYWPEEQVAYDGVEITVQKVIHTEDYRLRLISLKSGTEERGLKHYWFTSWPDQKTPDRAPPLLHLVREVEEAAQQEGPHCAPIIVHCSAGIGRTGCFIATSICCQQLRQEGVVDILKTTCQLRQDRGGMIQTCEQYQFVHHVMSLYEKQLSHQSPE

[10] = biological target: 72 kDa type IV collagenase (Homo sapiens, UniProt P08253); assay: Dose Response validation of uHTS RPN11 inhibitor hits using a MMP-2 Fluorescence assay.; assay type: functional
Chain of 72 kDa type IV collagenase (P08253 whole entry): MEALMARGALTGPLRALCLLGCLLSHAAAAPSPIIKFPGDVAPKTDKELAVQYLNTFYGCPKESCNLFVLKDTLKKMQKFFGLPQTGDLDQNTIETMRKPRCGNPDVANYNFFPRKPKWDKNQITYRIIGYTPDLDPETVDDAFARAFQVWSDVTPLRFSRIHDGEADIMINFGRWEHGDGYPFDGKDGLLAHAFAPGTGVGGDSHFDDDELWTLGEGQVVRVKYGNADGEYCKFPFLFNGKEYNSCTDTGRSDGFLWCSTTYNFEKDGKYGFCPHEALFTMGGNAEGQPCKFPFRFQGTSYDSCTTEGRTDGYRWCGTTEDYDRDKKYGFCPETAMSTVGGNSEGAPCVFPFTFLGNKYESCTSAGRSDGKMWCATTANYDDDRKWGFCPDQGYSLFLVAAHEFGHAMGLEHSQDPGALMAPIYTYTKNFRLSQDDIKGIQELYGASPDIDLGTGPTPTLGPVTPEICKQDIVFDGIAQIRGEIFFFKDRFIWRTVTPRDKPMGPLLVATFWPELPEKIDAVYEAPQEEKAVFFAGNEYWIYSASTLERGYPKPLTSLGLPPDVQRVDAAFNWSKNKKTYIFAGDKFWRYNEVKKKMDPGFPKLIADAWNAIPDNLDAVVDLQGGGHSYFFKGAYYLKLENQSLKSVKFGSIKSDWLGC

[11] = biological target: Dual specificity protein phosphatase 3 (Homo sapiens, UniProt P51452); assay: VHR phosphatase inhibition, dose response, selectivity assay for STEP inhibitor project, biochemical (AID 602374); assay type: functional; details: read-out: IC50_Mean
Chain of Dual specificity protein phosphatase 3 (P51452 whole entry): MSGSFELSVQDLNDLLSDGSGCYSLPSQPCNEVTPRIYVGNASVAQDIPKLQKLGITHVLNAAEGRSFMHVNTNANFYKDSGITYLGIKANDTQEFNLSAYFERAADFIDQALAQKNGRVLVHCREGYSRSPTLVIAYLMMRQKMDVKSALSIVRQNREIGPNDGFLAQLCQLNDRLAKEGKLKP

[12] = biological target: Prothrombin (Bos taurus, UniProt P00735); assay: thrombin inhibition, dose response, biochemical, fluorescence polarization, uHTS hits (AID 602369); assay type: functional
[13] = biological target: T2, Tyrosine-protein phosphatase non-receptor type 22 (Homo sapiens, UniProt Q9Y2R2); assay: PTPN22 phosphatase inhibition, dose response, selectivity assay for STEP inhibitor project, biochemical (AID 624241); assay type: functional
T2 sequence (Q9Y2R2 whole entry): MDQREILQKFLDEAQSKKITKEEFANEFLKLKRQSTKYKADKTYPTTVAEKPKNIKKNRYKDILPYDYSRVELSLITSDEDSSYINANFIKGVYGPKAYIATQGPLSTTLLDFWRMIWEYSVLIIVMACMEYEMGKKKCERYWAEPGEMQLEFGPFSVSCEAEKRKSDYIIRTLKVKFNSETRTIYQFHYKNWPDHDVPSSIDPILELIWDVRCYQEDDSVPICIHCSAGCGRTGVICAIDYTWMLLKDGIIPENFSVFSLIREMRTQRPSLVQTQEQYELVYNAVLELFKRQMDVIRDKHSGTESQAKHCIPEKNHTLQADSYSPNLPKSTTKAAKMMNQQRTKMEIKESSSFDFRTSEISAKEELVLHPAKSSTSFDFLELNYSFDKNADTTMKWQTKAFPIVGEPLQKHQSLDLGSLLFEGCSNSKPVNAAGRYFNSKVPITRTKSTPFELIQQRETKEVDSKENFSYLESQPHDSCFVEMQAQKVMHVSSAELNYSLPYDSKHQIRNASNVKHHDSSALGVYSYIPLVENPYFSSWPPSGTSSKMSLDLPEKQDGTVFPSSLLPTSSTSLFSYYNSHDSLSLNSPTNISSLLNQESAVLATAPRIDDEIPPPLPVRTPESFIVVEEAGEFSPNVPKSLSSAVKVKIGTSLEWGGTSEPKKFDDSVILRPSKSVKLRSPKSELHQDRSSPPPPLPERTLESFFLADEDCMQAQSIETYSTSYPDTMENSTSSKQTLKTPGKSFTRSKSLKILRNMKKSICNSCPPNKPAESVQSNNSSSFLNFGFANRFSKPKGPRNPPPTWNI

[14] = Luminescence Cell-Based Dose Response to Identify Activators of 5'UTR Stem-Loop Driven Prion Protein mRNA Translation in H4-C Neuroglioblastoma Cells. [Related pubchem assays: 1829 (Project Summary), 1814 (Primary HTS)]; assay type: functional
[15] = Luminescence Cell-Based Dose Confirmation HTS to Identify Activators of 5'UTR Stem-Loop Driven Alpha-Synuclein mRNA Translation in H4 Neuroglioblastoma Cells. [Related pubchem assays: 1829 (Project Summary), 1814 (Primary HTS)]; assay type: functional
[16] = Luminescence Cell-Based Dose Response HTS to Identify Activators of Luciferase Translation or Activity in H4 […] Cells. [Related pubchem assays: 1829 (Project Summary), 1814 (Primary HTS)]; assay type: functional
[17] = test system: H4; assay: Luminescence Cell-Based Dose Response HTS to Identify Activators of 5'UTR Stem-Loop Driven Prion Protein mRNA Translation in H4 Neuroglioblastoma Cells. [Related pubchem assays: 1829 (Project Summary), 1814 (Primary HTS)]; assay type: functional; details: Homo sapiens
[18] = Luminescence Cell-Based Dose Response to Identify Activators of Luciferase Translation or Activity in H4-C Neuroglioblastoma Cells. [Related pubchem assays: 1829 (Project Summary), 1814 (Primary HTS)]; assay type: functional
[19] = Luminescence Cell-Based Dose Confirmation to Identify Activators of 5'UTR Stem-Loop Driven Alpha-Synuclein mRNA Translation in H4 Neuroglioblastoma Cells. [Related pubchem assays: 1829 (Project Summary), 1814 (Primary HTS)]; assay type: functional
[20] = test system: HeLa; assay: HeLa cell cytotoxicity, dose response, cytotoxicity control for MITF activator project, CellTiter-Glo luminescence, cherry-pick samples (AID 540259); assay type: functional, cell-based; details: Homo sapiens

Chain of Genome polyprotein (Q2Q167 whole entry): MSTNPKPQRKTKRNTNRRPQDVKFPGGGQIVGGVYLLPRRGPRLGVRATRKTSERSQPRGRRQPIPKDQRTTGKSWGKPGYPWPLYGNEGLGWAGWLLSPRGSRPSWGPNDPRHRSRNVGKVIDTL

Question: For `Cc1cccc(Nc2nn3c(=O)c4ccccc4nc3s2)c1`, which IC50 [1] is on record?
Answer: > 49.8 µM (not active)

Question: What about the EC50 [2] of the same compound?
Answer: 32.2 µM (inactive)

Question: And the EC50 [3]?
Answer: > 79.4 µM (not active)

Question: What about the EC50 [4] of the same compound?
Answer: 21.7 µM (not active)

Question: And the IC50 [5]?
Answer: > 10 µM (not active)

Question: And the IC50 [6]?
Answer: 3.16 µM (active)

Question: And the IC50 [7]?
Answer: 1.71 µM (active)

Question: And the IC50 [8]?
Answer: 17.6 µM (active)

Question: And the IC50 [9]?
Answer: 4.17 µM (active)

Question: What about the IC50 [10] of the same compound?
Answer: 5.79 µM (active)

Question: What about the IC50 [11] of the same compound?
Answer: 1.21 µM (active)

Question: What about the IC50 [12] of the same compound?
Answer: > 100 µM (inactive)

Question: What about the IC50 [13] of the same compound?
Answer: 96.2 µM (inactive)

Question: With `COc1cccc(/C(C)=N/N=C(\C)c2cccc(OC)c2)c1` as the compound, how does the EC50 [14] read?
Answer: 1.47 µM (active)

Question: And the EC50 [15]?
Answer: < 0.1 µM (active)

Question: What about the EC50 [16] of the same compound?
Answer: 0.488 µM (active)

Question: And the EC50 [17]?
Answer: 38.7 µM (active)

Question: What about the EC50 [18] of the same compound?
Answer: 0.36 µM (active)

Question: And the EC50 [19]?
Answer: 0.419 µM (active)

Question: And the AC50 [20]?
Answer: 64.5 µM (active)
